Assay results reported in patent publication US20160074462A1, “Method of Treating HCV” (priority 2014, published 2016).

Conditions: human, in vivo
Text: Food effect on the drug exposure (e.g., AUC) of Compound 1/r, Compound 2 and Compound 3 was not known. Food effect on the drug exposure of these compounds was also not considered predictable.
The increase in exposure was similar regardless of meal type (e.g., high-fat vs. moderate-fat) or calorie content (500-600 kcal vs. 1000 kcal). Therefore, the combination of Compound 1/r, Compound 2 and Compound 3, the combination of Compound 1/r and Compound 3, as well as the combination of Compound 1/r and Compound 2, can be taken with food without regard to the specific fat or calorie content.
With `Cc1cnc(C(=O)N[C@H]2CCCCC/C=C\[C@@H]3C[C@@]3(C(=O)NS(=O)(=O)C3CC3)NC(=O)[C@@H]3C[C@@H](Oc4nc5ccccc5c5ccccc45)CN3C2=O)cn1` [Compound 1, (2R,6S,13aS,14aR,16aS,Z)-N-(cyclopropylsulfonyl)-6-(5-methylpyrazine-2-carboxamido)-5,16-dioxo-2-(phenanthridin-6-yloxy)-1,2,3,5,6,7,8,9,10,11,13a,14,14a,15,16,16a-hexadecahydrocyclopropa[e]pyrrolo[1,2-a][1,4]diazacyclop entadecine-14a-carboxamide] the “increase of exposure (AUC) by food” value was ≤ 367%.
In the case of `COc1c(-c2ccc3cc(NS(C)(=O)=O)ccc3c2)cc(-n2ccc(=O)[nH]c2=O)cc1C(C)(C)C` [Compound 2, N-(6-(3-tert-butyl-5-(2,4-dioxo-3,4-dihydropyrimidin-1(2H)-yl)-2-methoxyphenyl)naphthalen-2-yl)methanesulfonamide], the “increase of exposure (AUC) by food” value is reported as ≤ 53%.
With `COC(=O)N[C@H](C(=O)N1CCCC1C(=O)Nc1ccc(C2CC[C@@H](c3ccc(NC(=O)[C@@H]4CCCN4C(=O)[C@@H](NC(=O)OC)C(C)C)cc3)N2c2ccc(C(C)(C)C)cc2)cc1)C(C)C` (stereo partly shown) [Compound 3] the “increase of exposure (AUC) by food” value was “up to 127%”.
With `CC(C)c1nc(CN(C)C(=O)N[C@H](C(=O)N[C@@H](Cc2ccccc2)C[C@H](O)[C@H](Cc2ccccc2)NC(=O)OCc2cncs2)C(C)C)cs1` [ritonavir, reference compound] the “increase of exposure (AUC) by food” value was ≤ 63%.
